Reference: PMC11858715 (Molecules, 2025)
No end group written: not given here.

Experiments:
[1] = target: S2 (YIYRNYPDF), sense peptide surrogate of AtxA neurotoxic site (Vipera ammodytes ammodytes, UniProt P00626); assay: biochemical; format: binding; details: 100% DMSO; 25 °C; read-out: KD (σ)
[2] = target: S1 (GMMILG), sense peptide surrogate of AtxA neurotoxic site (Vipera ammodytes ammodytes, UniProt P00626); assay: biochemical; format: binding; details: 100% DMSO; 25 °C; read-out: KD (σ)

Substance | Kd [1] [µM] | Kd [2] [µM]
INISIVGVK [S2A1, Ile-Asn-Ile-Ser-Ile-Val-Gly-Val-Lys] | 1.1 | –
SHHYEP [S1A1, Ser-His-His-Tyr-Glu-Pro] | – | 4.9
SHHYSP [S1A2, Ser-His-His-Tyr-Ser-Pro] | – | 1.4
VNISVIGIK [S2A2, Val-Asn-Ile-Ser-Val-Ile-Gly-Ile-Lys] | 8.9 | –
